pIC50: −log10 of the molar value.
Columns and labels:
[1] = target: Phosphodiesterase 3 (Homo sapiens, UniProt Q14432+Q13370); experiment: Inhibition of cAMP PDE III enzyme; assay type: protein assay, Cavia porcellus
[2] = system: Canis familiaris; experiment: 50% increase in myocardial contractility (dP/dt max) in anesthetized dogs on intravenous dose; assay type: functional; details: Canis lupus familiaris, Myocardium
[3] = target: T1, Phosphodiesterase 1 (Homo sapiens, UniProt P54750+Q01064+Q14123); experiment: Inhibition cGMP PDE I enzyme; assay type: protein assay, Cavia porcellus
[4] = target: T1, Phosphodiesterase 1; experiment: Inhibition of cAMP PDE I enzyme; assay type: protein assay, Cavia porcellus
[5] = target: T2, cGMP-dependent 3',5'-cyclic phosphodiesterase (Homo sapiens, UniProt O00408); experiment: Inhibition of cGMP PDE II enzyme; set-up: species or system Cavia porcellus
T2 sequence (O00408 whole entry): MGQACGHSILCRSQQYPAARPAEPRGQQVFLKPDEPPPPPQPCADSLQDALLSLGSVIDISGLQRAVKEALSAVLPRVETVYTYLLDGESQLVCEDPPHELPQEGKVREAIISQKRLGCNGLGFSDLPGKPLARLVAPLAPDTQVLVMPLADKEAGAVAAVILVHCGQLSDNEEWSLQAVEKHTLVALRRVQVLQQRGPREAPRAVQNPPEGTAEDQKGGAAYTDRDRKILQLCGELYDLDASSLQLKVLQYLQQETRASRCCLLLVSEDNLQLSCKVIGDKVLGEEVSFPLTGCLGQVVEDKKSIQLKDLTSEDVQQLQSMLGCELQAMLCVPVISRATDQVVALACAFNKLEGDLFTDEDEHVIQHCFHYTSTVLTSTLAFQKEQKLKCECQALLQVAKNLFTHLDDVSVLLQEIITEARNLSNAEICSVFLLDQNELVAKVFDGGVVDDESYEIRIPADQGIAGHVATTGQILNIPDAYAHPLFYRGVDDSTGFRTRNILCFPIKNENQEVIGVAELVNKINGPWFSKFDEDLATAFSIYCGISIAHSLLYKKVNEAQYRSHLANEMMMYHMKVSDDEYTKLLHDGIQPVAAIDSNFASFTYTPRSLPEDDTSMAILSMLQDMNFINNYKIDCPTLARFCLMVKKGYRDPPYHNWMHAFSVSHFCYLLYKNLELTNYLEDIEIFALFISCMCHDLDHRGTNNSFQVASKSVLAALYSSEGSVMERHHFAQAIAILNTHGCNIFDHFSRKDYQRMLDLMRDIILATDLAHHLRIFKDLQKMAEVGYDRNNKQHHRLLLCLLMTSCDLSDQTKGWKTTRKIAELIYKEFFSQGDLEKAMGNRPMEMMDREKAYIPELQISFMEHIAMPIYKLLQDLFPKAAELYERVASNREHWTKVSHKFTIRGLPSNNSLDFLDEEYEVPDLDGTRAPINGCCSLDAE

[6] = target: T2, cGMP-dependent 3',5'-cyclic phosphodiesterase; experiment: Inhibition of cAMP PDE II enzyme; set-up: species or system Cavia porcellus

| SMILES | ED50 [2] [mg/kg] | IC50 [3] [µM] | further results |
| --- | --- | --- | --- |
| CC1CC(=O)NN=C1c1ccc2c(c1)CCC(=O)N2C (stereo unspecified) |  |  | IC50 [1]: 0.12 µM |
| O=C1CC2Cc3cc(-n4ccnc4)ccc3C2=NN1 (stereo unspecified) | 0.023 |  |  |
| O=C1CCC(c2cccc(-n3ccnc3)c2)=NN1 |  | > 1000 |  |
| O=C1CC2Cc3cc(-n4cnc5c4CCCC5)ccc3C2=NN1 (stereo unspecified) | 0.05 |  | IC50 [1]: 1.2 µM |
| CC1=C(c2ccc(-n3ccnc3)cc2)CC(C#N)C(=O)N1 (stereo unspecified) | 0.01 | 130 | IC50 [4]: 39 µM; pIC50 [5]: 3.92; pIC50 [6]: 4.37 |
| CSc1ccc(C(=O)c2[nH]c(=O)[nH]c2C)cc1 [ENOXIMONE] | 0.28 |  |  |
| Nc1cc(-c2ccncc2)c[nH]c1=O [INAMRINONE] | 0.39 | > 1000 | IC50 [4]: > 1000 µM |
| Cc1[nH]c(=O)c(C#N)cc1-c1ccncc1 [MILRINONE] | 0.04 |  |  |
| CCc1[nH]c(=O)[nH]c1C(=O)c1ccncc1 [PIROXIMONE] | 0.1 |  |  |

Source: ChEMBL document CHEMBL1123633, “Cardiotonic agents. 8. Selective inhibitors of adenosine 3',5'-cyclic phosphate phosphodiesterase III. Elaboration of a five-point model for positive inotropic activity” (J Med Chem, 1987)
